ChEMBL document CHEMBL4304757, “Synthetic heterocyclic candidates as promising α-glucosidase inhibitors: An overview” (Eur J Med Chem, 2019)
pIC50: −log10 of the molar value.

Target: T1, Alpha glucosidase (Homo sapiens, UniProt O43451+P10253+P14410+Q2M2H8)
Test: Inhibition of alpha-glucosidase (unknown origin) using p-nitrophenyl-alpha-d-glucopyranoside as substrate preincubated for 15 mins followed by substrate addition measured after 30 mins by spectrophotometric analysis
Type: protein assay

pIC50	Structure (SMILES)
4.21 to 4.70	Fc1cccc(Cn2cc(CSc3nc4cc(Cl)ccc4s3)nn2)c1
4.42 to 4.72	Fc1ccc(CSc2nc(-c3ccc(Br)cc3)cc(-c3ccc(Br)cc3)n2)cc1
4.21 to 4.70	Clc1ccc(Cn2cc(CSc3nc4ccccc4s3)nn2)cc1
4.42 to 4.72	Clc1ccccc1CSc1nc(-c2ccc(Br)cc2)cc(-c2cccc(Br)c2)n1

Target: T1, Alpha glucosidase
Test: Inhibition of alpha-glucosidase (unknown origin) using p-nitro phenyl glucopyranoside as substrate preincubated for 5 mins followed by substrate addition measured after 30 mins
Type: protein assay

pIC50	Structure (SMILES)
6.12 to 7.15	O=c1cc(-c2nn(C(Nc3ccc(NC(c4ccc([N+](=O)[O-])cc4)n4nc(-c5cc6ccccc6oc5=O)oc4=S)cc3)c3ccc([N+](=O)[O-])cc3)c(=S)o2)c2ccccc2o1 (stereo not drawn)
6.12 to 7.15	O=c1cc(-c2nn(C(Nc3ccc(-c4ccc(NC(c5cccc(Br)c5)n5nc(-c6cc7ccccc7oc6=O)oc5=S)cc4)cc3)c3cccc(Br)c3)c(=S)o2)c2ccccc2o1 (stereo not drawn)
6.12 to 7.15	Cc1ccc(C(Nc2ccc(NC(c3ccc(C)cc3)n3nc(-c4cc(=O)oc5ccccc45)oc3=S)cc2)n2nc(-c3cc4ccccc4oc3=O)oc2=S)cc1 (stereo not drawn)
6.12 to 7.15	CN(C)c1ccc(C(Nc2ccc(-c3ccc(NC(c4ccc(N(C)C)cc4)n4nc(-c5cc(=O)oc6ccccc56)oc4=S)cc3)cc2)n2nc(-c3cc4ccccc4oc3=O)oc2=S)cc1 (stereo not drawn)
6.12 to 7.15	CN(C)c1ccc(C(Nc2ccc(NC(c3ccc(N(C)C)cc3)n3nc(-c4cc(=O)oc5ccccc45)oc3=S)cc2)n2nc(-c3cc4ccccc4oc3=O)oc2=S)cc1 (stereo not drawn)
6.12 to 7.15	O=c1cc(-c2nn(C(Nc3ccc(NC(c4cccc(Cl)c4)n4nc(-c5cc6ccccc6oc5=O)oc4=S)cc3)c3cccc(Cl)c3)c(=S)o2)c2ccccc2o1 (stereo not drawn)
6.12 to 7.15	O=c1cc(-c2nn(C(Nc3ccc(-c4ccc(NC(c5ccc([N+](=O)[O-])cc5)n5nc(-c6cc7ccccc7oc6=O)oc5=S)cc4)cc3)c3ccc([N+](=O)[O-])cc3)c(=S)o2)c2ccccc2o1 (stereo not drawn)
6.12 to 7.15	CN(C)c1ccc(C(Nc2ccc(Oc3ccc(NC(c4ccc(N(C)C)cc4)n4nc(-c5cc6ccccc6oc5=O)oc4=S)cc3)cc2)n2nc(-c3cc4ccccc4oc3=O)oc2=S)cc1 (stereo not drawn)
6.12 to 7.15	O=c1cc(-c2nn(C(Nc3ccc(NC(c4ccc(F)cc4)n4nc(-c5cc6ccccc6oc5=O)oc4=S)cc3)c3ccc(F)cc3)c(=S)o2)c2ccccc2o1 (stereo not drawn)
6.12 to 7.15	COc1cccc(C(Nc2ccc(-c3ccc(NC(c4cccc(OC)c4)n4nc(-c5cc(=O)oc6ccccc56)oc4=S)cc3)cc2)n2nc(-c3cc4ccccc4oc3=O)oc2=S)c1 (stereo not drawn)
6.12 to 7.15	O=c1oc2ccccc2cc1-c1nn(C(Nc2ccc(Oc3ccc(NC(c4ccc(Cl)cc4Cl)n4nc(-c5cc6ccccc6oc5=O)oc4=S)cc3)cc2)c2ccc(Cl)cc2Cl)c(=S)o1 (stereo not drawn)
6.12 to 7.15	O=c1cc(-c2nn(C(Nc3ccc(NC(c4cccc(Br)c4)n4nc(-c5cc6ccccc6oc5=O)oc4=S)cc3)c3cccc(Br)c3)c(=S)o2)c2ccccc2o1 (stereo not drawn)
6.12 to 7.15	Cc1ccc(C(Nc2ccc(-c3ccc(NC(c4ccc(C)cc4)n4nc(-c5cc(=O)oc6ccccc56)oc4=S)cc3)cc2)n2nc(-c3cc4ccccc4oc3=O)oc2=S)cc1 (stereo not drawn)
6.12 to 7.15	O=c1cc(-c2nn(C(Nc3ccc(NC(c4ccc(Cl)cc4)n4nc(-c5cc6ccccc6oc5=O)oc4=S)cc3)c3ccc(Cl)cc3)c(=S)o2)c2ccccc2o1 (stereo not drawn)
6.12 to 7.15	Cc1ccc(C(Nc2ccc(Oc3ccc(NC(c4ccc(C)cc4)n4nc(-c5cc6ccccc6oc5=O)oc4=S)cc3)cc2)n2nc(-c3cc4ccccc4oc3=O)oc2=S)cc1 (stereo not drawn)
6.12 to 7.15	O=c1oc2ccccc2cc1-c1nn(C(Nc2ccc(Oc3ccc(NC(c4ccc(Cl)cc4)n4nc(-c5cc6ccccc6oc5=O)oc4=S)cc3)cc2)c2ccc(Cl)cc2)c(=S)o1 (stereo not drawn)
6.12 to 7.15	O=c1oc2ccccc2cc1-c1nn(C(Nc2ccc(Oc3ccc(NC(c4ccc([N+](=O)[O-])cc4)n4nc(-c5cc6ccccc6oc5=O)oc4=S)cc3)cc2)c2ccc([N+](=O)[O-])cc2)c(=S)o1 (stereo not drawn)
6.12 to 7.15	COc1cccc(C(Nc2ccc(NC(c3cccc(OC)c3)n3nc(-c4cc(=O)oc5ccccc45)oc3=S)cc2)n2nc(-c3cc4ccccc4oc3=O)oc2=S)c1 (stereo not drawn)
6.12 to 7.15	O=c1cc(-c2nn(C(Nc3ccc(-c4ccc(NC(c5ccc(Cl)cc5)n5nc(-c6cc7ccccc7oc6=O)oc5=S)cc4)cc3)c3ccc(Cl)cc3)c(=S)o2)c2ccccc2o1 (stereo not drawn)
6.12 to 7.15	O=c1oc2ccccc2cc1-c1nn(C(Nc2ccc(Oc3ccc(NC(c4ccc(Br)cc4)n4nc(-c5cc6ccccc6oc5=O)oc4=S)cc3)cc2)c2ccc(Br)cc2)c(=S)o1 (stereo not drawn)
6.12 to 7.15	O=c1cc(-c2nn(C(Nc3ccc(NC(c4ccc(Cl)cc4Cl)n4nc(-c5cc6ccccc6oc5=O)oc4=S)cc3)c3ccc(Cl)cc3Cl)c(=S)o2)c2ccccc2o1 (stereo not drawn)
6.12 to 7.15	O=c1cc(-c2nn(C(Nc3ccc(-c4ccc(NC(c5cccc(Cl)c5)n5nc(-c6cc7ccccc7oc6=O)oc5=S)cc4)cc3)c3cccc(Cl)c3)c(=S)o2)c2ccccc2o1 (stereo not drawn)
6.12 to 7.15	O=c1cc(-c2nn(C(Nc3ccc(-c4ccc(NC(c5ccc(Br)cc5)n5nc(-c6cc7ccccc7oc6=O)oc5=S)cc4)cc3)c3ccc(Br)cc3)c(=S)o2)c2ccccc2o1 (stereo not drawn)
6.12 to 7.15	O=c1cc(-c2nn(C(Nc3ccc(-c4ccc(NC(c5ccc(Cl)cc5Cl)n5nc(-c6cc7ccccc7oc6=O)oc5=S)cc4)cc3)c3ccc(Cl)cc3Cl)c(=S)o2)c2ccccc2o1 (stereo not drawn)

Target: T1, Alpha glucosidase
Test: Inhibition of alpha-glucosidase (unknown origin) using pNPG as substrate preincubated for 10 mins followed by substrate addition measured after 30 mins
Type: protein assay

pIC50	Structure (SMILES)
3.65 to 5.64	O=C(N/N=C/c1ccc(O)c(O)c1)c1cc2ccccc2[nH]1
4.01 to 5.08	COc1ccc(-n2c(-c3c(-c4ccc(Cl)cc4)[nH]c4ccc(Cl)cc34)nc(-c3ccccc3)c2-c2ccccc2)cc1
3.65 to 5.64	O=C(N/N=C/c1ccc(Cl)cc1)c1cc2ccccc2[nH]1

Target: not listed separately
Test: Inhibition of yeast alpha-glucosidase
Design: species or system Saccharomyces cerevisiae

pIC50	Structure (SMILES)
4.28 to 6.00	Cc1cc2c(c(=O)[nH]1)C(=O)O/C2=C\c1cccc(Br)c1
5.00 to 6.62	Cc1cc2c(c(=O)[nH]1)C(=O)O/C2=C\c1cccs1
4.28 to 6.00	Cc1cc2c(c(=O)[nH]1)C(=O)O/C2=C\c1ccc(Br)cc1
4.07 to 5.08	COc1ccc(-c2csc(/C=C3\OC(=O)c4c3cc(C)[nH]c4=O)c2)cn1
6.05	Cc1cc2c(c(=O)[nH]1)C(=O)O/C2=C\c1nccn1C
4.28 to 6.00	Cc1cc2c(c(=O)[nH]1)C(=O)O/C2=C\c1ccccc1
4.28 to 6.00	Cc1cc2c(c(=O)[nH]1)C(=O)O/C2=C\c1ccccc1C(F)(F)F
4.06 to 5.92	CC(C)(C)c1ccc(COc2cccc(-c3cc(=O)c4ccccc4o3)c2)cc1
6.62	Cc1cc2c(c(=O)[nH]1)C(=O)O/C2=C\c1cc(Br)cs1
6.00	Cc1cc2c(c(=O)[nH]1)C(=O)O/C2=C\c1ccc(F)c(F)c1
5.92	O=c1cc(-c2cccc(OCc3cc(C(F)(F)F)ccc3C(F)(F)F)c2)oc2ccccc12
4.06 to 5.92	O=c1cc(-c2cccc(OCc3cccc(SC(F)(F)F)c3)c2)oc2ccccc12
4.06 to 5.92	N#Cc1ccc(COc2cccc(-c3cc(=O)c4ccccc4o3)c2)cc1
4.06 to 5.92	Cc1cccc(COc2cccc(-c3cc(=O)c4ccccc4o3)c2)c1
4.06 to 5.92	N#Cc1cccc(COc2cccc(-c3cc(=O)c4ccccc4o3)c2)c1
4.06 to 5.92	O=c1cc(-c2cccc(OCc3ccccc3)c2)oc2ccccc12
5.47	O=c1cc(-c2cccc(OCc3cccc(F)c3F)c2)oc2ccccc12
4.06 to 5.92	COc1ccc(COc2cccc(-c3cc(=O)c4ccccc4o3)c2)cc1
4.07 to 5.08	Cc1cc2c(c(=O)[nH]1)C(=O)O/C2=C\c1cc(-c2ccnc(N3CCN(C(=O)OC(C)(C)C)CC3)c2)cs1
5.08	Cc1cc2c(c(=O)[nH]1)C(=O)O/C2=C\c1cc(-c2ccccc2)cs1
4.06 to 5.92	O=c1cc(-c2cccc(OCc3ccc([N+](=O)[O-])cc3)c2)oc2ccccc12
4.28 to 6.00	Cc1cc2c(c(=O)[nH]1)C(=O)O/C2=C\c1ccc(O)c(O)c1
